Results taken from paper PMC6337497 (International Journal of Molecular Sciences, 2018).

Tests used:
[1] = Antioxidant activity (DPPH assay); conditions: [DPPH] = 60 µM, methanol, 120 min; read-out: IC50, DPPH radical scavenging
Procedure: The antioxidant activity of the compounds was evaluated in terms of hydrogen donating or radical scavenging ability, using the stable DPPH radical (1,1-diphenyl-2-picrylhydrazyl radical). A variable amount (15, 30, 45, 75, 105, and 150 µL) of a methanol solution (1.2 mM) of each compound was placed in a cuvette, and 3 mL of a 60 µM methanol solution of DPPH was added. Absorbance measurements were initiated immediately. The decrease in absorbance at 517 nm was monitored every minute up to 5′, then every 5′ up to 30′ and every 30′ until reaction reaches completion and absorbance stabilizes attaining a plateau after 120′. Methanol was used to zero the spectrophotometer. The absorbance of the DPPH radical without K3F compound, i.e., the control, was measured daily, and concentration was calculated applying Equation (2) (2) [DPPH^·]=A−1.006/10970
The percentage of inhibition (%In) of the DPPH radical by each sample was calculated according to the formula (3) %In=A0−At/A0×100 where A0 represents the absorbance of the control (DPPH radical) at time 0, while At refers to the absorbance of the mixture DPPH/antioxidant at time t (120 min). Values of absorbance were corrected taking into account volume dilution and all determinations were performed in triplicate.

DU145 cells [2] = assay: MTT cell viability assay, DU145; type: cell-based, Human; conditions: Homo sapiens, DU-145; 48 h treatment, MTT
Procedure: Human prostate cancer PC3 cells (CRL 1435, ATCC, Manassas, VA, USA) were grown in Ham’s F12 nutrient medium, human prostate cancer DU145 cells (HTB-81, ATCC, Manassas, VA, USA) in RPMI 1640 medium and human colorectal carcinoma HCT116 cells (CCL-247, ATCC, Manassas, VA, USA) in IMDM medium. All media (Biowest, Nuaillé, France) were supplemented with 10% Foetal Bovine Serum (Gibco-Thermo Fisher Scientific, Waltham, MA, USA), L-glutamine, penicillin, and streptomycin (Euroclone, Milan, Italy), and grown at 37 °C in a humidified 5% CO2 atmosphere.
DMSO was used as control.
(§1) The inhibition of cell proliferation was measured by colorimetric MTT assay and the concentration at which cellular growth is inhibited by 50% (GI50) was determined. Briefly, cells were seeded into 96-well plates at a density of 2000 cells/well. The following day, cells were treated with the indicated compounds and analyzed for cell viability after 48 h. 5 mg/mL thiazolyl blue tetrazolium bromide (Sigma-Aldrich, St. Louis, MO, USA) was added to each well at a final concentration of 0.5 mg/mL and the plates were incubated at 37 °C for 2 h. Medium containing unconverted MTT was removed and 100 µL MTT solvent (4 mM HCl, 0.1% NP-40 in isopropyl alcohol) was added to each well. The plate was gently rotated on an orbital shaker in the dark for 15 min, before the measurements of absorbance at 570 nm. The viability of untreated cells was arbitrarily set at 100%.

PC3 cells [3] = assay: Cell cycle analysis (propidium iodide), PC3; type: cell-based, Human; conditions: PC3, 48 h at GI50 dose
Procedure: Cells were harvested after 48 h drug treatments and DNA distribution analysis of cells stained with propidium iodide solution (propidium iodide 25 µg/mL, Na-Citrate 3.4 mM, NaCl 9.65 mM, NP-40 0.03%) was performed by an Epics cytofluorimeter (Beckman Coulter Srl, Milan, Italy).

DU145 cells [4] = assay: Cell migration (wound) assay, DU145; type: cell-based, Human; conditions: DU145, GI50 dose, 16 h
Procedure: 4 × 10^5 prostate cancer cells were plated in a 12-well plate. Approximately 24 h later, when the cells were 100% confluent, the monolayer was scratched using a 200 µL pipette tip. […] Three biological replicates were performed. Three random pictures were taken for each treated well per experiment and the areas of the wounds measured using ImageJ software. The percentage of wound recovery was then calculated using the formula: (final area-initial area)/initial area × 100%.

PC3 cells [5] = assay: Anchorage-dependent colony formation assay, PC3; type: cell-based, Human
Procedure: For anchorage-dependent colony formation assay, 1000 PC3 or 500 DU145 cells were plated in 6-well plates. […] After 7–10 days, the plates were washed, fixed and stained with 0.5% crystal violet solution in 20% Methanol. […] Colony numbers were normalized as a percentage of colonies formed following DMSO treatment.

DU145 cells [6] = assay: Anchorage-independent colony formation assay, DU145; type: cell-based, Human; conditions: DU145, 10 µM
Procedure: For anchorage-independent colony formation assay, 0.6% low melt agarose gel with 10% FBS in appropriate complete cell growth medium was prepared and added to the wells of a twelve-well culture dish as a base agar. […] PC3 and DU145 cells were allowed to grow at 37 °C for three weeks (PC3) or five weeks (DU145). The effect of the drugs on anchorage-independent growth was determined by colony growth. Colonies were stained with 0.07% crystal violet and formed colonies were imaged. The numbers of colonies with radius ≥ 7 pixels were counted with automated colony counter (OpenCFU 3.9.0) and average number of colonies was plotted against drug concentrations. Colony numbers were normalized as a percentage of colonies formed following DMSO treatment.

DU145 cells [7] = assay: K3F21/docetaxel co-administration, MTT and CompuSyn, DU145; type: cell-based, Human; conditions: 48 h
Procedure: as §1
The ability of K3F21 and docetaxel to act synergistically with regard to growth inhibition was determined using CompuSyn software (ComboSyn, Inc., freely available at http://www.combosyn.com). Combination index (CI) and drug reduction index (DRI) were calculated for each concentration of drugs mixture, as indicated in the text. CI <1, =1 or >1 indicates synergism, additive effect, or antagonism, respectively. DRI >1 or <1 indicates favorable or not favorable dose-reduction.

## COc1cc(/C=C/C(=O)C(CCCN2C(=O)c3ccccc3C2=O)C(=O)/C=C/c2ccc(O)c(OC)c2)ccc1O [K3F21]
[1]
  IC50: 24 µM
DU145 cells [2]
  GI50: 8.6 µM
PC3 cells [3]
  effect on cell cycle distribution (in words): doubled the percentage of G2/M cells
DU145 cells [4]
  cell migration (wound recovery): exerted inhibitory effects on the migratory capacity
PC3 cells [5]; PC3, 5 µM
  anchorage-dependent colony formation: quite completely abolished
PC3 cells [5]; PC3, 7 days, different doses
  anchorage-dependent colony growth: clearly inhibited cell growth when administered at lower concentrations than curcumin
DU145 cells [6]
  decrease in colony formation, anchorage-independent: up to 95%
DU145 cells [7]; DU145, K3F21 and DTX 20nM
  cell viability of co-administration compared to independent treatments: significant decrease in cell viability
DU145 cells [7]; DU145, K3F21 co-administered with DTX 20nM
  Combination Index (CI): 0.8
